Experimental data reported in PubChem BioAssay AID248 (DTP/NCI, 2004).
Where “and” joins values, the source holds several entries; their conditions need not be identical. Identical values can stand only once. Toxic doses and inconclusive results are not listed. Cut-off read from the data, not from the text of the source: active = T/C of 150% or more; inactive = T/C below 125%. Square brackets hold non-standard residues; d marks the D form. Peptide text beside a SMILES is read from it. * marks the point of attachment. Cbz = O=C(OCc1ccccc1)*; OBn = c1ccc(CO*)cc1; Sar = CNCC(=O)O

Test system: L1210 leukemia ip in BDF1 mice, survival T/C
Assay: NCI In Vivo Anticancer Drug Screen. Data for tumor model L1210 Leukemia (intraperitoneal) in B6D2F1 (BDF1) mice
Settings: endpoint: mean survival time, higher = longer survival
How it was run: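 Read-out is survival time, reported as the treated-group measurement over the vehicle-control measurement.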

[1] = dose: 100.0 mg/kg/injection, schedule: Q01DX009 (ip), vehicle: Klucel (hydroxypropylcellulose) (HPC)
[2] = dose: 100.0 mg/kg/injection, schedule: Q04DX003 (ip), vehicle: Klucel (hydroxypropylcellulose) (HPC)
[3] = dose: 200.0 mg/kg/injection, schedule: Q01DX009 (ip), vehicle: Klucel (hydroxypropylcellulose) (HPC)
[4] = dose: 200.0 mg/kg/injection, schedule: Q04DX003 (ip), vehicle: Klucel (hydroxypropylcellulose) (HPC)
[5] = dose: 400.0 mg/kg/injection, schedule: Q01DX009 (ip), vehicle: Klucel (hydroxypropylcellulose) (HPC)
[6] = dose: 400.0 mg/kg/injection, schedule: Q04DX003 (ip), vehicle: Klucel (hydroxypropylcellulose) (HPC)
[7] = dose: 100.0 mg/kg/injection, schedule: Q04DX002 (ip), vehicle: Klucel (hydroxypropylcellulose) (HPC)
[8] = dose: 200.0 mg/kg/injection, schedule: Q04DX002 (ip), vehicle: Klucel (hydroxypropylcellulose) (HPC)
[9] = dose: 100.0 mg/kg/injection, schedule: Q04DX003 (ip), vehicle: saline with Tween-80
[10] = dose: 200.0 mg/kg/injection, schedule: Q04DX003 (ip), vehicle: saline with Tween-80
[11] = dose: 400.0 mg/kg/injection, schedule: Q04DX003 (ip), vehicle: saline with Tween-80
[12] = dose: 100.0 mg/kg/injection, schedule: Q01DX001 (ip), vehicle: saline
[13] = dose: 100.0 mg/kg/injection, schedule: Q01DX009 (ip), vehicle: saline
[14] = dose: 100.0 mg/kg/injection, schedule: Q04DX003 (ip), vehicle: saline
[15] = dose: 200.0 mg/kg/injection, schedule: Q01DX001 (ip), vehicle: saline
[16] = dose: 200.0 mg/kg/injection, schedule: Q01DX009 (ip), vehicle: saline
[17] = dose: 200.0 mg/kg/injection, schedule: Q04DX003 (ip), vehicle: saline
[18] = dose: 400.0 mg/kg/injection, schedule: Q01DX001 (ip), vehicle: saline
[19] = dose: 400.0 mg/kg/injection, schedule: Q04DX003 (ip), vehicle: saline
[20] = dose: 100.0 mg/kg/injection, schedule: Q01DX001 (ip), vehicle: carboxymethylcellulose (CMC)

Measured: T/C

COc1cc(N(C)C)ccc1C=O
inactive: dose: 50.0 mg/kg/injection, schedule: Q01DX009 (ip), vehicle: Klucel (hydroxypropylcellulose) (HPC) 93 % of control | [1] 101 % of control | [2] 100 % of control | [3] 105 % of control | [4] 101 % of control | [5] 105 % of control | [6] 97 % of control

CC1C(c2ccccc2)N1C(=O)Nc1ccccc1 (stereo unspecified)
inactive: dose: 100.0 mg/kg/injection, schedule: Q01DX001 (ip), vehicle: Klucel (hydroxypropylcellulose) (HPC) 93 % of control | dose: 200.0 mg/kg/injection, schedule: Q01DX001 (ip), vehicle: Klucel (hydroxypropylcellulose) (HPC) 96 % of control | dose: 400.0 mg/kg/injection, schedule: Q01DX001 (ip), vehicle: Klucel (hydroxypropylcellulose) (HPC) 98 % of control

ClCC1COC(CCl)O1 (stereo unspecified)
inactive: dose: 55.0 mg/kg/injection, schedule: Q01DX Z (ip), vehicle: saline 101 % of control | dose: 83.0 mg/kg/injection, schedule: Q01DX Z (ip), vehicle: saline 95 % of control | dose: 125.0 mg/kg/injection, schedule: Q01DX Z (ip), vehicle: saline 97 % of control

Cc1ccc(NC(=O)Oc2ccc(C(C)(C)C)cc2)cc1NC(=O)Oc1ccc(C(C)(C)C)cc1
inactive: [1] 97 % of control | [3] 105 % of control | [5] 100 % of control

COC1OC(COC(c2ccccc2)(c2ccccc2)c2ccccc2)C(OC)C(OC(C)=O)C1OC(C)=O (stereo unspecified)
inactive: dose: 25.0 mg/kg/injection, schedule: Q04DX002 (ip), vehicle: Klucel (hydroxypropylcellulose) (HPC) 95 % of control | dose: 50.0 mg/kg/injection, schedule: Q04DX002 (ip), vehicle: Klucel (hydroxypropylcellulose) (HPC) 95 % of control | [7] 92 % of control | [8] 102 % of control | dose: 400.0 mg/kg/injection, schedule: Q04DX002 (ip), vehicle: Klucel (hydroxypropylcellulose) (HPC) 90 % of control

Nc1cc(S(N)(=O)=O)ccc1N1CCCC1
inactive: [9] 96 % of control | [10] 91 % of control | [11] 102 % of control

Cc1ccccc1Sc1ccccc1[N+](=O)[O-]
inactive: [2] 95 % of control | [4] 106 % of control | [6] 103 % of control

O=S1(=O)CC2(C1)OCCO2
inactive: [7] 94 % of control | [8] 94 % of control

CNC1(C(N)=O)CCCCC1
inactive: dose: 50.0 mg/kg/injection, schedule: Q01DX009 (ip), vehicle: saline 91 % of control | [12] 102 % of control | [13] 96 % of control | [14] 100 % of control | [15] 107 % of control | [16] 106 % of control | [17] 100 % of control | [18] 104 % of control | [19] 96 % of control

CC(=O)Nc1ccc2oc(=O)ccc2c1
inactive: [9] 98 % of control | [10] 105 % of control | [11] 98 % of control

COc1ccc(/C=C(\CCCOC(C)=O)[N+](=O)[O-])cc1
inactive: [12] 100 % of control | [15] 111 % of control | [18] 113 % of control

C1=Nc2ccccc2/C1=C/c1cccs1
inactive: [20] 97 % of control | dose: 100.0 mg/kg/injection, schedule: Q01DX009 (ip), vehicle: carboxymethylcellulose (CMC) 96 % of control and 108 % of control | dose: 100.0 mg/kg/injection, schedule: Q04DX002 (ip), vehicle: carboxymethylcellulose (CMC) 100 % of control and 102 % of control | dose: 100.0 mg/kg/injection, schedule: Q04DX003 (ip), vehicle: carboxymethylcellulose (CMC) 95 % of control | dose: 200.0 mg/kg/injection, schedule: Q01DX001 (ip), vehicle: carboxymethylcellulose (CMC) 98 % of control | dose: 200.0 mg/kg/injection, schedule: Q01DX009 (ip), vehicle: carboxymethylcellulose (CMC) 96 % of control and 105 % of control | dose: 200.0 mg/kg/injection, schedule: Q04DX002 (ip), vehicle: carboxymethylcellulose (CMC) 104 % of control and 110 % of control | dose: 200.0 mg/kg/injection, schedule: Q04DX003 (ip), vehicle: carboxymethylcellulose (CMC) 89 % of control | dose: 400.0 mg/kg/injection, schedule: Q01DX001 (ip), vehicle: carboxymethylcellulose (CMC) 93 % of control | dose: 400.0 mg/kg/injection, schedule: Q01DX009 (ip), vehicle: carboxymethylcellulose (CMC) 89 % of control and 91 % of control | dose: 400.0 mg/kg/injection, schedule: Q04DX002 (ip), vehicle: carboxymethylcellulose (CMC) 103 % of control and 104 % of control

O=C1c2ccccc2C(=O)C1(Br)Br
inactive: dose: 50.0 mg/kg/injection, schedule: Q01DX001 (ip), vehicle: saline 106 % of control | [12] 97 % of control | [15] 101 % of control

O=C(/C=C/c1ccccc1)CCN1CCC2CCC(C2)C1 (stereo unspecified)
inactive: dose: 50.0 mg/kg/injection, schedule: Q01DX001 (ip), vehicle: carboxymethylcellulose (CMC) 103 % of control | [20] 97 % of control

CN(CC(=O)OCc1ccccc1)C(=O)CNC(=O)OCc1ccccc1 (Cbz-Gly-[Sar]-OBn)
inactive: [9] 95 % of control | [10] 98 % of control | [11] 98 % of control

COc1ccc(/C=C2\CCC3C(CCCC34OCCO4)C2=O)cc1 (stereo unspecified)
inactive: [13] 88 % of control | [14] 101 % of control | [16] 101 % of control | [17] 97 % of control | dose: 400.0 mg/kg/injection, schedule: Q01DX009 (ip), vehicle: saline 104 % of control | [19] 99 % of control

Nc1cc[c]([Hg][Cl])cc1
inactive: dose: 1.0 mg/kg/injection, schedule: Q01DX009 (ip), vehicle: Klucel (hydroxypropylcellulose) (HPC) 97 % of control | dose: 1.0 mg/kg/injection, schedule: Q04DX003 (ip), vehicle: saline 102 % of control | dose: 3.0 mg/kg/injection, schedule: Q01DX009 (ip), vehicle: Klucel (hydroxypropylcellulose) (HPC) 112 % of control | dose: 3.0 mg/kg/injection, schedule: Q04DX003 (ip), vehicle: saline 96 % of control | dose: 6.0 mg/kg/injection, schedule: Q01DX009 (ip), vehicle: Klucel (hydroxypropylcellulose) (HPC) 88 % of control | dose: 6.0 mg/kg/injection, schedule: Q04DX003 (ip), vehicle: saline 95 % of control

O=C1NC2NC(=O)NC2N1 (stereo unspecified)
inactive: dose: 100.0 mg/kg/injection, schedule: Q01DX009 (ip), vehicle: saline with Tween-80 98 % of control | [9] 112 % of control | dose: 200.0 mg/kg/injection, schedule: Q01DX009 (ip), vehicle: saline with Tween-80 115 % of control | [10] 98 % of control | dose: 400.0 mg/kg/injection, schedule: Q01DX009 (ip), vehicle: saline with Tween-80 96 % of control | [11] 101 % of control
